Paper PMC4661090 (FEBS letters, 2015)

Assays:
[1] = biological target: Tsr (thiostrepton resistance methyltransferase) (Streptomyces azureus, UniProt P18644); assay: isothermal titration calorimetry, single-set-of-sites fit; format: binding
[2] = biological target: Tsr (thiostrepton resistance methyltransferase) (Streptomyces azureus, UniProt P18644, N129A); assay: biochemical; format: binding
[3] = biological target: Tsr (thiostrepton resistance methyltransferase) (Streptomyces azureus, UniProt P18644, R135A); assay: biochemical; format: binding
[4] = biological target: Tsr (thiostrepton resistance methyltransferase) (Streptomyces azureus, UniProt P18644, R165A); assay: biochemical; format: binding
[5] = biological target: Tsr (thiostrepton resistance methyltransferase) (Streptomyces azureus, UniProt P18644, R165K); assay: biochemical
[6] = biological target: Tsr (thiostrepton resistance methyltransferase) (Streptomyces azureus, UniProt P18644, N129D); assay: biochemical
[7] = biological target: Tsr (thiostrepton resistance methyltransferase) (Streptomyces azureus, UniProt P18644, R135K); assay: biochemical

Nc1ncnc2c1ncn2[C@@H]1O[C@H](CSCC[C@H](N)C(=O)O)[C@@H](O)[C@H]1O [SAH, S-adenosyl-L-homocysteine]
Kd [1]: 24.4 µM
Kd [2]: 16.4 µM
Kd [3]: 11 µM
Kd [4]: 20.5 µM

C[S+](CC[C@H](N)C(=O)O)C[C@H]1O[C@@H](n2cnc3c(N)ncnc32)[C@H](O)[C@@H]1O (stereo partly drawn) [SAM, S-adenosyl-L-methionine]
Kd [1]: 107 µM
Kd [2]: 493 µM
Kd [3]: 614 µM
Kd [4]: 189 µM
Kd [5]: 97.1 µM
Kd [6]: 411 µM
Kd [7]: 142 µM
